According to patent publication US20240408216A1, “PROTEIN INHIBITOR OR DEGRADING AGENT, PHARMACEUTICAL COMPOSITION CONTAINING SAME AND PHARMACEUTICAL USE” (JING MEDICINE TECHNOLOGY (SHANGHAI) LTD., priority 2021, published 2024):

What was measured:
A431 = assay: Cell proliferation IC50 assay (Cell Titer GLO), A431 cells; type: cell-based; details: Homo sapiens, A-431; Table 6; A431, 72 h; read-out: A431 IC50
Experimental: (§1) IC50 of compounds in the present invention was determined by Cell Titer GLO reagent from Promega. The procedures are as follows:
(§2) Tumor cells were cultured in specified medium in an incubator at 37° C. and 5% CO2. The cells were passaged periodically. Cells at the logarithmic growth phase were collected for plating at a density of 2000-4000 cells/well. The next day, the compounds of the present invention were serially diluted and added to the cells, with DMSO being the negative control and the culture media without cells being the blank control. The plate was incubated in the incubator for 72 h. The cell viability assay was performed by adding the detection reagents to the cell culture media according to Cell Titer GLO reagent instructions and detecting luminescent signals on an EnVision microplate reader (PerkinElmer).
(§3) Inhibition of cell growth by the compounds of the present invention was plotted by Prism Graphpad software for statistically calculating the IC50 of the compound of the present invention.

BaF3 (EGFR Del19/C797S) = biological target: T1, BaF3 (EGFR Del19/C797S) (Homo sapiens, UniProt P00533, C797S, cells depend on it, form not given); assay: Cell proliferation IC50 assay (Cell Titer GLO), BaF3 DC cells; type: cell-based, mouse; details: Table 6, 72 h
T1 construct: BaF3 (EGFR Del19/C797S)|DC|RPMI1640 + 10% FBS
Experimental: as §1, §2, §3

[1] = tested on: BaF3 (EGFR L858R/T790M/C797S); assay: Cell proliferation IC50 assay (Cell Titer GLO), BaF3 LTC cells; type: cell-based; details: Mus musculus, Ba/F3 EGFR, Table 6, 72 h
Experimental: as §1, §2, §3

BaF3 (EGFR WT) = assay: Cell proliferation IC50 assay (Cell Titer GLO), BaF3 WT cells; type: cell-based; details: Mus musculus, Ba/F3 EGFR, Table 6, 10 ng/ml EGF, 72 h
Experimental: as §1, §2, §3

T1 sequence (P00533 with tags, fused parts or gaps DEL746-750/C797S, form open): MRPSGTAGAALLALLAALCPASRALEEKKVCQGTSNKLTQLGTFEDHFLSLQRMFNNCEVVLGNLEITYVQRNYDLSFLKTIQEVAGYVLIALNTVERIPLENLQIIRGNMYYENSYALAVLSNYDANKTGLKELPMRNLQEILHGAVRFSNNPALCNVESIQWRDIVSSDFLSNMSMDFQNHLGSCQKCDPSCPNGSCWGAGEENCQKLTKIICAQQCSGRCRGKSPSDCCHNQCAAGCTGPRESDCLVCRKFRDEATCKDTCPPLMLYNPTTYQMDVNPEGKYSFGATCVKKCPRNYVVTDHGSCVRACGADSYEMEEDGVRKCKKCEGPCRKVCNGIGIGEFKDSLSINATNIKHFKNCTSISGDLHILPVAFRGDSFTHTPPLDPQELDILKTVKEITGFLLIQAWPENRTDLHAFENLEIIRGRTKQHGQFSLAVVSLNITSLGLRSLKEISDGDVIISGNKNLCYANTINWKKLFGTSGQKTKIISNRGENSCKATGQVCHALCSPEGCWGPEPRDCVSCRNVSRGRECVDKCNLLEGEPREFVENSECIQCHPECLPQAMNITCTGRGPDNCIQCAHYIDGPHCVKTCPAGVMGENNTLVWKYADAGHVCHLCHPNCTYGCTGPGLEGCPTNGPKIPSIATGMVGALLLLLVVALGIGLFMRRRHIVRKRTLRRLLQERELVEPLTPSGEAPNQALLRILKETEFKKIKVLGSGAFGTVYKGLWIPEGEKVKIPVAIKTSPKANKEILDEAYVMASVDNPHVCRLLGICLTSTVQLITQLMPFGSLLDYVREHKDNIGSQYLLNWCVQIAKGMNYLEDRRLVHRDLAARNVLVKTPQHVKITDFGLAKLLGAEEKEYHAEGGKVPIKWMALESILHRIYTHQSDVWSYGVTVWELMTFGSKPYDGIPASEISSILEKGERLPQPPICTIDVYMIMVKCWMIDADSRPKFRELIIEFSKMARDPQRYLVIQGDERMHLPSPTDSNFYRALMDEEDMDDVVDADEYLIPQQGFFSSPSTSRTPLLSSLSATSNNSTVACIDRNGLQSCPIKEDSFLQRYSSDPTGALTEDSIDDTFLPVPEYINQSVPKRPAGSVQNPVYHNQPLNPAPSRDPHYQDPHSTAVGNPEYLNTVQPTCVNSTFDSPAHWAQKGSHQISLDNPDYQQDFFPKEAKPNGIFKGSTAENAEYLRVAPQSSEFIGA

IC50 (A431)	IC50 (BaF3 (EGFR Del19/C797S))	IC50 [1]	IC50 (BaF3 (EGFR WT))	Compound
1340 nM	6.3 nM	112 nM	> 4000 nM	CCc1cc(Nc2ncc(Cl)c(Nc3ccccc3P(C)(C)=O)n2)c(OC)cc1N1CCC(N2CCN(CCOc3cccc4c3CN(C3CCC(=O)NC3=O)C4=O)CC2=O)CC1 (stereo not shown) [Example E118]
1400 nM	5.6 nM	67.3 nM	> 4000 nM	CCc1cc(Nc2ncc(Cl)c(Nc3ccccc3P(C)(C)=O)n2)c(OC)cc1N1CCC(N2CCN(CCCCNc3cccc4c3CN(C3CCC(=O)NC3=O)C4=O)CC2)CC1 (stereo not shown) [Example E119]
1270 nM	8.7 nM	79.6 nM	595 nM	COc1cc(N2CCC(N3CCN(CCCCOc4cccc5c4CN(C4CCC(=O)NC4=O)C5=O)CC3)CC2)c(CO)cc1Nc1ncc(Cl)c(Nc2ccccc2P(C)(C)=O)n1 (stereo not shown) [Example E127]
963 nM	60.9 nM	694 nM	554 nM	CCc1cc(Nc2ncc(Cl)c(Nc3ccccc3P(C)(C)=O)n2)cc(C(N)=O)c1N1CCC(N2CCN(CCCCOc3cccc4c3CN(C3CCC(=O)NC3=O)C4=O)CC2)CC1 (stereo not shown) [Example E139]
> 4000 nM	124 nM	1100 nM	792 nM	CCc1cc(Nc2nc(Nc3ccccc3P(C)(C)=O)c3cc[nH]c3n2)c(C(C)(C)O)cc1N1CCC(N2CCN(CCCCOc3cccc4c3CN(C3CCC(=O)NC3=O)C4=O)CC2)CC1 (stereo not shown) [Example E142]
1370 nM	35.2 nM	105 nM	1200 nM	CCc1cc(Nc2ncc(Cl)c(Nc3ccccc3P(C)(C)=O)n2)c(OC)cc1N1CCC(N2CCN(CCOc3cccc4c3CN(C3CCC(=O)NC3=O)C4=O)C3(CC3)C2)CC1 (stereo not shown) [Example E144]
> 4000 nM	9.3 nM	> 4000 nM	> 4000 nM	CCc1cc(Nc2ncc(C(=O)N3CCCC3)c(Nc3ccccc3P(C)(C)=O)n2)c(OC)cc1N1CCC(N2CCN(CCOc3cccc4c3CN(C3CCC(=O)NC3=O)C4=O)CC2)CC1 (stereo not shown) [Example E148]
> 4000 nM	26.3 nM	65.9 nM	> 4000 nM	CCc1cc(N2CCC(N3CCN(CCCCOc4cccc5c4CN(C4CCC(=O)NC4=O)C5=O)CC3)CC2)c(CC)cc1Nc1nc(Nc2ccccc2P(C)(C)=O)c2cc[nH]c2n1 (stereo not shown) [Example E153]
> 4000 nM	446 nM	3430 nM	> 4000 nM	CCc1cc(Nc2nc(Nc3ccccc3P(C)(C)=O)c3cc[nH]c3n2)c(C(F)(F)F)cc1N1CCC(N2CCN(CCCCOc3cccc4c3CN(C3CCC(=O)NC3=O)C4=O)CC2)CC1 (stereo not shown) [Example E154]
1290 nM	2 nM	135 nM	1190 nM	CCc1cc(Nc2nc(Nc3ccccc3P(C)(C)=O)c3cn[nH]c3n2)c(OC)cc1N1CCC(N2CCN(CCCCOc3cccc4c3CN(C3CCC(=O)NC3=O)C4=O)CC2)CC1 (stereo not shown) [Example E161]
> 4000 nM	6.3 nM	> 4000 nM	> 4000 nM	CCc1cc(Nc2ncc(-n3cncn3)c(Nc3ccccc3P(C)(C)=O)n2)c(OC)cc1N1CCC(N2CCN(CCOc3cccc4c3CN(C3CCC(=O)NC3=O)C4=O)CC2)CC1 (stereo not shown) [Example E171]

The remaining lines, values behind:

Compound	IC50 (A431)	IC50 (BaF3 (EGFR Del19/C797S))	IC50 [1]	IC50 (BaF3 (EGFR WT))
CCc1cc(Nc2nc(Nc3ccccc3P(C)(C)=O)c3cc[nH]c3n2)c(OC)cc1N1CCC(N2CCN(CCCCOc3cc(F)cc4c3CN(C3CCC(=O)NC3=O)C4=O)CC2)CC1 (stereo not shown) [Example E141]	> 4000 nM	14.7 nM	50.3 nM	> 4000 nM
CCc1cc(Nc2ncc(Cl)c(Nc3ccccc3P(C)(C)=O)n2)c(OC)cc1N1CCC(N2CCN(CCC#Cc3ccc4c(c3)c(N3CCC(=O)NC3=O)nn4C)CC2)CC1 [Example E145]	1110 nM	79.1 nM	506 nM	> 4000 nM
CCc1cc(Nc2ncc(-c3ccn(C)n3)c(Nc3ccccc3P(C)(C)=O)n2)c(OC)cc1N1CCC(N2CCN(CCOc3cccc4c3CN(C3CCC(=O)NC3=O)C4=O)CC2)CC1 (stereo not shown) [Example E147]	> 4000 nM	56.1 nM	2000 nM	1570 nM
CCc1cc(Nc2ncc(-c3nc(C)no3)c(Nc3ccccc3P(C)(C)=O)n2)c(OC)cc1N1CCC(N2CCN(CCOc3cccc4c3CN(C3CCC(=O)NC3=O)C4=O)CC2)CC1 (stereo not shown) [Example E149]	> 4000 nM	37.2 nM	3480 nM	1290 nM
CCc1cc(Nc2ncc(Cl)c(Nc3ccccc3P(C)(C)=O)n2)c(OC)cc1N1CCC(N2CCN([C@H]3C[C@@H](Oc4cccc5c4CN(C4CCC(=O)NC4=O)C5=O)C3)CC2)CC1 (stereo partly shown) [Example E159]	1850 nM	1.4 nM	21.9 nM	646 nM
CCc1cc(Nc2ncc(-c3cc[nH]n3)c(Nc3ccccc3P(C)(C)=O)n2)c(OC)cc1N1CCC(N2CCN(CCOc3cccc4c3CN(C3CCC(=O)NC3=O)C4=O)CC2)CC1 (stereo not shown) [Example E164]	> 4000 nM	7.7 nM	> 4000 nM	> 4000 nM
CCc1cc(Nc2ncc(-n3ccnc3)c(Nc3ccccc3P(C)(C)=O)n2)c(OC)cc1N1CCC(N2CCN(CCOc3cccc4c3CN(C3CCC(=O)NC3=O)C4=O)CC2)CC1 (stereo not shown) [Example E170]	> 4000 nM	3.5 nM	> 4000 nM	> 4000 nM
CCc1cc(Nc2ncc(-c3cnn(C)c3)c(Nc3ccccc3P(C)(C)=O)n2)c(OC)cc1N1CCC(N2Cc3ccc(Oc4cccc5c4CN(C4CCC(=O)NC4=O)C5=O)cc3C2)CC1 (stereo not shown) [Example E172]	> 4000 nM	2.4 nM	> 4000 nM	1070 nM
CCc1cc(Nc2ncc(Cl)c(Nc3ccccc3P(C)(C)=O)n2)c(OC)cc1N1CCC(N2Cc3ccc(Sc4cccc5c4CN(C4CCC(=O)NC4=O)C5=O)cc3C2)CC1 (stereo not shown) [Example E173]	> 4000 nM	21.7 nM	181 nM	1530 nM
CCc1cc(Nc2ncc(-c3ccnn3C)c(Nc3ccccc3P(C)(C)=O)n2)c(OC)cc1N1CCC(N2CCN(CCOc3cccc4c3CN(C3CCC(=O)NC3=O)C4=O)CC2)CC1 (stereo not shown) [Example E176]	> 4000 nM	2.4 nM	> 4000 nM	> 4000 nM
CCc1cc(Nc2ncc(-c3nnc(C)o3)c(Nc3ccccc3P(C)(C)=O)n2)c(OC)cc1N1CCC(N2CCN(CCOc3cccc4c3CN(C3CCC(=O)NC3=O)C4=O)CC2)CC1 (stereo not shown) [Example E177]	> 4000 nM	15.7 nM	> 4000 nM	> 4000 nM
CCc1cc(Nc2ncc(Cl)c(Nc3ccccc3P(C)(C)=O)n2)c(OC)cc1N1CCC(N2CCC3(CC(Oc4ccc5c(c4)CN(C4CCC(=O)NC4=O)C5=O)C3)C2)CC1 (stereo not shown) [Example E187]	1460 nM	19.5 nM	50.3 nM	815 nM
CCc1cc(Nc2ncc(-c3cnn(C)c3)c(Nc3ccccc3P(C)(C)=O)n2)c(OC)cc1N1CCC(N2CCN(CCOc3cc4c(cc3F)C(=O)N(C3CCC(=O)NC3=O)C4)CC2)CC1 (stereo not shown) [Example E189]	1010 nM	0.8 nM	> 4000 nM	496 nM
CCc1cc(Nc2ncc(Cl)c(Nc3ccccc3P(C)(C)=O)n2)c(OC)cc1N1CCC(N2CCN([C@H]3C[C@H](Oc4ccc5c(c4)CN(C4CCC(=O)NC4=O)C5=O)C3)CC2)CC1 (stereo partly shown) [Example E191]	1150 nM	3.1 nM	69.2 nM	947 nM
CCc1cc(Nc2ncc(-c3cc(C)n[nH]3)c(Nc3ccccc3P(C)(C)=O)n2)c(OC)cc1N1CCC(N2CCN(CCOc3ccc4c(c3)CN(C3CCC(=O)NC3=O)C4=O)CC2)CC1 (stereo not shown) [Example E192]	> 4000 nM	43.8 nM	> 4000 nM	> 4000 nM
CCc1cc(Nc2ncc(-c3cn(C)nn3)c(Nc3ccccc3P(C)(C)=O)n2)c(OC)cc1N1CCC(N2CCN(CCOc3ccc4c(c3)CN(C3CCC(=O)NC3=O)C4=O)CC2)CC1 (stereo not shown) [Example E193]	> 4000 nM	14.9 nM	> 4000 nM	1320 nM
CCc1cc(Nc2ncc(-c3cnn(C)c3)c(Nc3ccccc3P(C)(C)=O)n2)c(OC)cc1N1CCC(N2CCN(CCOc3cc(F)cc4c3CN(C3CCC(=O)NC3=O)C4=O)CC2)CC1 (stereo not shown) [Example E194]	1360 nM	0.5 nM	> 4000 nM	535 nM
CCc1cc(Nc2nc(Nc3ccccc3P(C)(C)=O)c3cn[nH]c3n2)c(OC)cc1N1CCC(N2CCN(CCOc3cc4c(cc3F)C(=O)N(C3CCC(=O)NC3=O)C4)CC2)CC1 (stereo not shown) [Example E208]	1350 nM	16.1 nM	532 nM	1010 nM
CCc1cc(Nc2ncc(-n3cnc(C)c3)c(Nc3ccccc3P(C)(C)=O)n2)c(OC)cc1N1CCC(N2CCN(CCOc3ccc4c(c3)CN(C3CCC(=O)NC3=O)C4=O)CC2)CC1 (stereo not shown) [Example E214]	1460 nM	3.4 nM	> 4000 nM	616 nM
CCc1cc(Nc2ncc(-c3cnn(C)c3)c(Nc3ccc(C)cc3P(C)(C)=O)n2)c(OC)cc1N1CCC(N2CCN(Cc3ccc4c(c3)CN(C3CCC(=O)NC3=O)C4=O)CC2)CC1 (stereo not shown) [Example E216]	> 4000 nM	1 nM	> 4000 nM	926 nM
